pIC50: −log10 of the molar value. Structures can show the parent of a compound that is named as a salt. Where two headings read alike, the source gives them in different places.
What was measured:
[1] = test system: airway hyperresponsiveness; conditions: multiple antigen challenges, primate model; cited from earlier work
[2] = test system: LTB4 production in murine blood (LTA4H); experiment: LTB4 production by calcium ionophore-stimulated murine blood for LTA4H inhibitor activity; assay type: cell-based, CD-1 mice; conditions: Mus musculus; murine blood diluted 1 in 15, A23187 stimulated; single determination or average; mark after value = form tested: ′ free base, ″ hydrochloride, ^ formate; read-out: IC50
Method in brief: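 Heparinized blood from CD-1 mice was preincubated with compound for 15 min at 37° C, then stimulated with calcium ionophore A23187 (final 7 μg/mL) for 30 min. Centrifugation stopped the reaction, and LTB4 in the supernatant was measured by enzyme immunoassay. Values are single determinations or means of two or more.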

[3] = test system: arachidonic acid-induced neutrophil influx in murine ear tissue; experiment: Murine arachidonic acid-induced inflammation model: neutrophil influx (myeloperoxidase) in ear; assay type: in vivo, Balb/c mice; conditions: Mus musculus, read-out: % Inh. MPO
[4] = target: T1, recombinant human LTA4 hydrolase (rhLTA4H) (Homo sapiens, UniProt P09960); experiment: Recombinant human LTA4 hydrolase assay for LTA4 hydrolase inhibitor activity; assay type: biochemical; conditions: rhLTA4H, LTB4 by immunoassay; single determination or average of two or more; mark after value = form tested: ′ free base, ″ hydrochloride, ^ formate; read-out: IC50
T1 construct: made in house; host or cells: Spodoptera frugiperda (Sf-9) cells, baculovirus (pFastBac1)
T1 sequence (P09960 1-611): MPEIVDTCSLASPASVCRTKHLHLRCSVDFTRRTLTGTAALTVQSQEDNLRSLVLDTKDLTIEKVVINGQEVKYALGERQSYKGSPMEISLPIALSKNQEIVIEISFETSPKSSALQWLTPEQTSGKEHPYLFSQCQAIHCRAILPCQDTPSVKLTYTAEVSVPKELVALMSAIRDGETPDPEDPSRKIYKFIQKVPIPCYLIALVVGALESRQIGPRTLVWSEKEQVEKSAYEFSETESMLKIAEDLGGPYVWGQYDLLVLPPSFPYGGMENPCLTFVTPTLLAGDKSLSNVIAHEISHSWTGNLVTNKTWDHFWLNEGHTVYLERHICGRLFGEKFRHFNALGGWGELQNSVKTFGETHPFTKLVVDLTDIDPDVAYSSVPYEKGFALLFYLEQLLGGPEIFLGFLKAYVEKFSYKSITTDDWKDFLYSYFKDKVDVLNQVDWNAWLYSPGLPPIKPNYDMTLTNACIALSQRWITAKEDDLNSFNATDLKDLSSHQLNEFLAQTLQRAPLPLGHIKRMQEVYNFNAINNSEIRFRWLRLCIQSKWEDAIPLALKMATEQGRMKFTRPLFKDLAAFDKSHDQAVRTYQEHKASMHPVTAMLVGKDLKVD
Method in brief: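 Baculovirus/Sf-9-expressed human LTA4H (10 ng) was preincubated 10 min at rt with compound in assay buffer (10% DMSO in compound dilution), then reacted 30 min at rt with LTA4 free acid made from its methyl ester. LTB4 produced was measured by ELISA after dilution; IC50 from non-linear regression, single or averaged determinations.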

[5] = test system: ex vivo calcium ionophore-stimulated LTB4 production in whole blood; experiment: Murine arachidonic acid-induced inflammation model: ex vivo stimulated LTB4 production in blood; parameters: species or system Balb/c mice; conditions: Mus musculus; 30 mg/kg oral gavage; blood diluted 1:1, A23187 stimulated ex vivo; percent inhibition of LTB4 production; read-out: % Inh. LTB4
[6] = test system: ionophore-induced LTB4 production; conditions: oral administration; cited from earlier work
[7] = test system: ionophore-induced LTB4 production; conditions: oral administration; cited from earlier work; remark: listed apart in the source
[8] = test system: colitis symptoms; conditions: eight weeks of treatment; cited from earlier work
[9] = 30 mg/kg oral gavage, 60 min before topical arachidonic acid, ear biopsy after 3 h, percent inhibition of neutrophil influx

Compound: O=C(O)C1(c2ccc3c(c2)OC[C@H](Cc2ccc(-c4ccccc4)cc2)[C@H]3O)CCCC1 [CP-105,696]
- airway hyperresponsiveness [1]: reduced

Compound: OCC1CCN(Cc2coc3cc(Oc4nc5ncccc5s4)ccc23)CC1 [Example 269, {1-[6-(Thiazolo[4,5-b]pyridin-2-yloxy)-benzofuran-3-ylmethyl]-piperidin-4-yl}-methanol]
- pIC50 [2]: 7.92
- inhibition at 30 mg/kg [3, 9]: 92%
- pIC50 [4]: 8.40
- inhibition at 30 mg/kg [5]: 74%

Compound: CC(=O)NC1CCN(Cc2coc3cc(Oc4nc5ncccc5s4)ccc23)C1 (centres unmarked) [Example 307, N-{1-[6-(Thiazolo[4,5-b]pyridin-2-yloxy)-benzofuran-3-ylmethyl]-pyrrolidin-3-yl}-acetamide formate]
- pIC50 [2]: 8.10
- inhibition at 30 mg/kg ([3]; Neutrophil): 78%
- pIC50 [4]: 8.30
- inhibition at 30 mg/kg [5]: 81%

Compound: CC(=O)N(C)C1CCN(Cc2coc3cc(Oc4nc5ncccc5s4)ccc23)C1 (centres unmarked) [Example 309, N-Methyl-N-{1-[6-(thiazolo[4,5-b]pyridin-2-yloxy)-benzofuran-3-ylmethyl]-pyrrolidin-3-yl}-acetamide]
- pIC50 [2]: 7.18
- inhibition at 30 mg/kg [3, 9]: 81%
- pIC50 [4]: 8.30
- inhibition at 30 mg/kg [5]: 70%

Compound: CC(=O)N1C[C@@H]2CC[C@H]1CN2Cc1cc2ncc(Oc3nc4ncccc4s3)cc2o1 [Example 339, (1S,4S)-1-{5-[6-(Thiazolo[4,5-b]pyridin-2-yloxy)-furo[3,2-b]pyridin-2-ylmethyl]-2,5-diaza-bicyclo[2.2.2]oct-2-yl}-ethanone formate]
- pIC50 [2]: 7.15
- inhibition at 30 mg/kg ([3]; Neutrophil): 50%
- pIC50 [4]: 7.92
- inhibition at 30 mg/kg [5]: 50%

Compound: CC(=O)N1C[C@H]2C[C@@H]1CN2C(=O)c1cc2cc(Oc3nc4ncccc4s3)ccc2o1 [Example 366, (1R,4R)-1-{5-[5-(Thiazolo[4,5-b]pyridin-2-yloxy)-benzofuran-2-carbonyl]-2,5-diaza-bicyclo[2.2.1]hept-2-yl}-ethanone]
- pIC50 [2]: 7.21
- inhibition at 30 mg/kg [3, 9]: 50%
- pIC50 [4]: 7.70
- inhibition at 30 mg/kg [5]: 78%

Compound: CC(=O)N[C@H]1C[C@H]2CC[C@@H](C1)N2C(=O)c1coc2cc(Oc3nc4ncccc4s3)ccc12 [Example 369, meso-endo-N-{8-[6-(Thiazolo[4,5-b]pyridin-2-yloxy)-benzofuran-3-carbonyl]-8-aza-bicyclo[3.2.1]oct-3-yl}-acetamide]
- pIC50 [2]: 7.00
- inhibition at 30 mg/kg [3, 9]: 76%
- pIC50 [4]: 7.72
- inhibition at 30 mg/kg [5]: 58%

Compound: O=C(c1coc2cc(Oc3nc4ncccc4s3)ccc12)N1CCC(N2CCCC2=O)CC1 [Example 370, 1-{1-[6-(Thiazolo[4,5-b]pyridin-2-yloxy)-benzofuran-3-carbonyl]-piperidin-4-yl}-pyrrolidin-2-one]
- pIC50 [2]: 7.52
- inhibition at 30 mg/kg ([3]; Neutrophil): 69%
- pIC50 [4]: 8.05
- inhibition at 30 mg/kg [5]: 78%

Compound: CC(=O)N1C[C@@H]2C[C@H]1CN2C(=O)c1coc2cc(Oc3nc4ncccc4s3)ccc12 [Example 371, (1S,4S)-1-{5-[6-(Thiazolo[4,5-b]pyridin-2-yloxy)-benzofuran-3-carbonyl]-2,5-diaza-bicyclo[2.2.1]hept-2-yl}-ethanone]
- pIC50 [2]: 7.08
- inhibition at 30 mg/kg [3, 9]: 82%
- pIC50 [4]: 7.60
- inhibition at 30 mg/kg [5]: 54%

Compound: CC(=O)N1CCCN(C(=O)c2coc3cc(Oc4nc5ncccc5s4)ccc23)CC1 [Example 372, 1-{4-[6-(Thiazolo[4,5-b]pyridin-2-yloxy)-benzofuran-3-carbonyl]-[1,4]diazepan-1-yl}-ethanone]
- pIC50 [2]: 7.33
- inhibition at 30 mg/kg [3, 9]: 53%
- pIC50 [4]: 7.52
- inhibition at 30 mg/kg [5]: 62%

Compound: NC(=O)N1CC2CCC(C1)N2C(=O)c1coc2cc(Oc3nc4ncccc4s3)ccc12 [Example 374, meso-8-[6-(Thiazolo[4,5-b]pyridin-2-yloxy)-benzofuran-3-carbonyl]-3,8-diaza-bicyclo[3.2.1]octane-3-carboxylic acid amide]
- pIC50 [2]: 7.30
- inhibition at 30 mg/kg [3, 9]: 37%
- pIC50 [4]: 7.96
- inhibition at 30 mg/kg [5]: 7%

Compound: CN(CCCOc1ccc(Cc2ccccc2)cc1)CCC(=O)O.Cl [SC57461]
- ionophore-induced LTB4 production in rat peritoneum in vivo [6]: caused inhibition
- ionophore-induced LTB4 production in mouse blood ex vivo [7]: caused inhibition
- colitis symptoms [8]: significantly improved

From US8399465B2, “Compounds with two fused bicyclic heteroaryl moieties as modulators of leukotriene A4 hydrolase” (Janssen Pharmaceutica NV, priority 2009, dated 2013)
